Reference: patent publication US20200299251A1, “FURAN SKELETON-CONTAINING IMINOGUANIDINE DERIVATIVE AS WELL AS PREPARATION AND APPLICATION THEREOF” (SUN YAT-SEN UNIVERSITY, priority 2017, published 2020)
Blank lines part the entries; values can stand above or below the compound they belong to.

Experiments:
[1] = type: physicochemical
[2] = Release of H2O and CO2 by heating in watch glass under normal pressure (weight loss); type: physicochemical
Experimental: The weight-lost solid was dissolved into water, carbon dioxide gas was introduced, and the above substances were stirred for lh to separate out a yellow solid.
The weight was 2.6 g, and weight loss was 29.7%. The weight-lost solid was dissolved into water, carbon dioxide gas was introduced, and the above substances were stirred for 1 h to separate out a yellow solid.
The weight was 2.46 g, and weight loss was 33.7%. The weight-lost solid was dissolved into water, carbon dioxide gas was introduced, and the above substances were stirred for lh to separate out a yellow solid.
The weight was 2.45 g, and weight loss was 33.7%. The weight-lost solid was dissolved into water, carbon dioxide gas was introduced, and the above substances were stirred for lh to separate out a yellow solid.

[3] = Thermogravimetry infrared experiment; type: physicochemical; settings: 10 K/min
Experimental: The temperature range was 25-800° C., and the heating rate was 10 K/min. […] It can be seen from FIG. 9B that this molecule can release water molecules and carbon dioxide molecules under the heating condition, and water molecules and carbon dioxide molecules are nearly released at the same time.

[4] = Differential scanning calorimetric experiment; type: physicochemical; settings: 30-200° C., 10 K/min
[5] = Equilibrium constants and enthalpy changes of the process of absorbing and releasing carbon dioxide; type: physicochemical
[6] = Water solubility of FuBIG salts, UV absorbance of saturated aqueous solutions; settings: saturated aqueous solution, UV absorbance at 368 nm
Experimental: The absorbance of the above concentration gradients was determined under this wavelength, and standard curves were plotted to obtain a curve equation Y=14705×−0.0825 (as shown in FIG. 13B).
It was known that the pKa of HCO3^− was 10.32.

[7] = Determination of pKa by pH titration with NaOH; type: physicochemical
Experimental: 0.077 g of FUBIG hydrochloride and 0.585 g of NaCl were weighed, the volume was metered to 50 mL with ultrapure water, and 26 μL of HCl (36%) was dropwise added. The mixed solution was stirred at 25° C. until the temperature was stabilized. The pH meter was calibrated respectively using potassium hydrogen phthalate (pH 4.00) buffer, mixed phosphate buffer (pH 6.86), sodium tetraborate buffer (pH 9.18), and then titration was conducted with 0.1M NaOH solution. After each titration, the system was stabilized after waiting for 7min, and then the next titration was conducted. The volume and pH value of each titration were recorded.
Plot was made according to the ph-V (mL). […] The same method was used to obtain: 15° C., pKa1=7.79, pKa2=8.90; at 20° C., pKa1=7.68, pKa2=8.82; at 30° C., pKa1=7.49, pKa2=8.66; at 35° C., pKa1=7.31, pKa2=8.59 (as shown in Table 3).

pH of saturated aqueous solution ([1]; pH meter): 8.48 | concentration of carbonate ion [CO3^2−] in the saturated solution ([1]; saturated aqueous solution, pH 8.48): 1.3(3)×10^−4 M | weight loss ([2]; heated for 5 h at 100° C.): 33.6% | weight loss ([2]; heated for 12 h at 70° C.): 29.7% | weight loss ([2]; heated for 12 h at 120° C.): 33.7% | weight loss ([2]; heated for 12 h at 180° C.): 33.7% | temperature at which the weight loss rate is the maximum ([3]; 25-800° C.): 100 °C | temperature at which water and carbon dioxide molecules are completely lost ([3]; 25-800° C.): 165 °C | weight loss ([3]; at 165° C.): 36.31% | temperature range of release of carbon dioxide and water (DSC) [4]: 97.89-109.13 °C | Enthalpy change ΔH ([5]; FuBIGH2(CO3)(H2O)4 precipitate): -24.276 kcal/mol | Equilibrium constant K ([5]; FuBIGH2(CO3)(H2O)4 precipitate): 1.63 × 10^7 | Solubility(FuBIG cation concentration, M) [6]: 9.3 (4)×10^−3 M
Structure (SMILES): N=C(N)NN=Cc1ccc(C=NNC(=N)N)o1.O.O.O.O.O=C(O)O

Solubility(FuBIG cation concentration, M) [6]: 0.74 (6) M
Structure (SMILES): Cl.N=C(N)NN=Cc1ccc(C=NNC(=N)N)o1

Solubility(FuBIG cation concentration, M) [6]: 3.3 (2)×10^−2 M
Structure (SMILES): N=C(N)NN=Cc1ccc(C=NNC(=N)N)o1.O.O.O=[N+]([O-])O.O=[N+]([O-])O

Solubility(FuBIG cation concentration, M) [6]: 1.4 (2)×10^−3 M
Structure (SMILES): N=C(N)NN=Cc1ccc(C=NNC(=N)N)o1.O=S(O)O

pKa1 ([7]; 15° C.): 7.79 | pKa2 ([7]; 15° C.): 8.90 | pKa1 ([7]; 20° C.): 7.68 | pKa2 ([7]; 20° C.): 8.82 | pKa1 ([7]; 25° C.): 7.57 | pKa2 ([7]; 25° C.): 8.71 | pKa1 ([7]; 30° C.): 7.49 | pKa2 ([7]; 30° C.): 8.66 | pKa1 ([7]; 35° C.): 7.31 | pKa2 ([7]; 35° C.): 8.59 | Enthalpy change ΔH ([5]; FuBIG dissolution): 11.76 kcal/mol | Equilibrium constant K ([5]; FuBIG dissolution): 4.03 × 10^−1 | Enthalpy change ΔH ([5]; FuBIG protonation): 11.01 kcal/mol | Equilibrium constant K ([5]; FuBIG protonation): 1.91 × 10^−12 | Enthalpy change ΔH ([5]; Total CO2 absorbing process): -27.75 kcal/mol | Equilibrium constant K ([5]; Total CO2 absorbing process): 5.97 × 10^4 | Enthalpy change ΔH ([5]; Total CO2 releasing process): 50.026 kcal/mol | melting point: 244 to 246 °C
Structure (SMILES): N=C(N)N/N=C/c1ccc(/C=N/NC(=N)N)o1 [FuBIG]
